# Assays:
# Assay type in all cases: cell-based
# [1] = tested on: CCRF-CEM; test: in vitro cytotoxicity evaluation, Leukemia; settings: Homo sapiens, 48 h, two days, sulforhodamine B
# Description: (§1) These assays were carried out at the Developmental Therapeutics Program, Division of Cancer Treatment, National Cancer Institute (Bethesda, Md., USA). The method consists of incubating varying concentrations of the drug with an inoculum of cells for two days.
# (§2) It should be noted that the first two parameters (GI50 and TGI) relate to antiproliferation effects while the third one (LC50) indicates true cytotoxicity.
# [2] = tested on: K-562; test: in vitro cytotoxicity evaluation, Leukemia; settings: Homo sapiens, K562, 48 h, K-562, two days, sulforhodamine B
# Description: as §1, §2
# [3] = tested on: MOLT-4; test: in vitro cytotoxicity evaluation, Leukemia; settings: Homo sapiens, 48 h, MOLT-4, two days, sulforhodamine B
# Description: as §1, §2
# [4] = tested on: RPMI-8226; test: in vitro cytotoxicity evaluation, Leukemia; settings: Homo sapiens, 48 h, RPMI-8226, two days, sulforhodamine B
# Description: as §1, §2
# [5] = tested on: A-549/ATCC; test: in vitro cytotoxicity evaluation, Non-Small Cell Lung Cancer; settings: Homo sapiens, A549, 48 h, two days, sulforhodamine B
# Description: as §1, §2
# [6] = tested on: FKVX; test: as above; settings: Homo sapiens, 48 h, two days, sulforhodamine B
# Description: as §1, §2
# [7] = tested on: HOP-18; test: as above; settings: Homo sapiens, 48 h, HOP-18, two days, sulforhodamine B
# Description: as §1, §2
# [8] = tested on: NCI-H226; test: as above; settings: Homo sapiens, 48 h, NCI-H226, two days, sulforhodamine B
# Description: as §1, §2
# [9] = tested on: NCI-H23; test: as above; settings: Homo sapiens, 48 h, NCI-H23, two days, sulforhodamine B
# Description: as §1, §2
# [10] = tested on: NCI-H460; test: as above; settings: Homo sapiens, 48 h, NCI-H460, two days, sulforhodamine B
# Description: as §1, §2
# [11] = tested on: NCI-H522; test: as above; settings: Homo sapiens, 48 h, NCI-H522, two days, sulforhodamine B
# Description: as §1, §2
# [12] = tested on: NCI=H322M; test: as above; settings: Homo sapiens, 48 h, two days, sulforhodamine B
# Description: as §1, §2
# [13] = tested on: DMS 273; test: in vitro cytotoxicity evaluation, Small Cell Lung Cancer; settings: Homo sapiens, 48 h, DMS 273, two days, sulforhodamine B
# Description: as §1, §2
# [14] = tested on: IGROV-1; test: in vitro cytotoxicity evaluation, Ovarian Cancer; settings: Homo sapiens, 48 h, IGROV-1, two days, sulforhodamine B
# Description: as §1, §2
# [15] = tested on: OVCAR-3; test: in vitro cytotoxicity evaluation, Ovarian Cancer; settings: Homo sapiens, 48 h, OVCAR-3, two days, sulforhodamine B
# Description: as §1, §2
# [16] = tested on: OVCAR-4; test: in vitro cytotoxicity evaluation, Ovarian Cancer; settings: Homo sapiens, 48 h, OVCAR-4, two days, sulforhodamine B
# Description: as §1, §2
# [17] = tested on: OVCAR-5; test: in vitro cytotoxicity evaluation, Ovarian Cancer; settings: Homo sapiens, 48 h, OVCAR-5, two days, sulforhodamine B
# Description: as §1, §2
# [18] = tested on: OVCAR-8; test: in vitro cytotoxicity evaluation, Ovarian Cancer; settings: Homo sapiens, 48 h, OVCAR-8, two days, sulforhodamine B
# Description: as §1, §2
# [19] = tested on: SK-OV-3; test: in vitro cytotoxicity evaluation, Ovarian Cancer; settings: Homo sapiens, 48 h, SK-OV-3, two days, sulforhodamine B
# Description: as §1, §2
# [20] = tested on: RXF-631; test: in vitro cytotoxicity evaluation, Renal Cancer; settings: Homo sapiens, 48 h, RXF-631, two days, sulforhodamine B
# Description: as §1, §2
# [21] = tested on: TK-10; test: in vitro cytotoxicity evaluation, Renal Cancer; settings: Homo sapiens, 48 h, TK-10, two days, sulforhodamine B
# Description: as §1, §2
# [22] = tested on: UO-31; test: in vitro cytotoxicity evaluation, Renal Cancer; settings: Homo sapiens, 48 h, UO-31, two days, sulforhodamine B
# Description: as §1, §2
# [23] = read-out: LOG10 G150 (GI50) (converted)
# [24] = read-out: Log10 LC50 (converted)
# [25] = read-out: Log10 TGI (converted)
smiles,measurement,setting,value
"COc1c2c(c(OC)c3c(=O)c4ccccc4sc13)CS(=O)(=O)[C@@H]2O[C@H]1C[C@H](N)[C@H](O)[C@H](C)O1 [BCH-255, (1S ) 1-daunosamine-4-11-dimethoxy-5-oxo-5-H-1,3-dihydrothioxantheno [2,3-c] thiophene-2,2-dioxide]",GI50,[1]; [23],17.8 µM
same,CC50,[1]; [24],97.7 µM
same,IC (total growth inhibition (TGI)),[1]; [25],41.7 µM
same,GI50,[2]; [23],16.2 µM
same,CC50,[2]; [24],83.2 µM
same,IC (total growth inhibition (TGI)),[2]; [25],36.3 µM
same,GI50,[3]; [23],19.1 µM
same,CC50,[3]; [24],87.1 µM
same,IC (total growth inhibition (TGI)),[3]; [25],40.7 µM
same,GI50,[4]; [23],16.2 µM
same,CC50,[4]; [24],> 100 µM
same,IC (total growth inhibition (TGI)),[4]; [25],40.7 µM
same,GI50,[5]; [23],19.5 µM
same,CC50,[5]; [24],69.2 µM
same,IC (total growth inhibition (TGI)),[5]; [25],36.3 µM
same,GI50,[6]; [23],25.7 µM
same,CC50,[6]; [24],93.3 µM
same,IC (total growth inhibition (TGI)),[6]; [25],49 µM
same,GI50,[7]; read-out: LOG10 G150 (GI50),> 100 µM
same,CC50,[7]; [24],> 100 µM
same,IC (total growth inhibition (TGI)),[7]; read-out: Log10 TGI,> 100 µM
same,GI50,[8]; [23],20 µM
same,CC50,[8]; [24],83.2 µM
same,IC (total growth inhibition (TGI)),[8]; [25],40.7 µM
same,GI50,[9]; [23],50.1 µM
same,CC50,[9]; [24],> 100 µM
same,IC (total growth inhibition (TGI)),[9]; read-out: Log10 TGI,> 100 µM
same,GI50,[10]; [23],20.4 µM
same,LC50 (concentration killing 50% of cells),[10]; [24],79.4 µM
same,IC (total growth inhibition (TGI)),[10]; [25],39.8 µM
same,GI50,[11]; [23],18.6 µM
same,CC50,[11]; [24],77.6 µM
same,IC (total growth inhibition (TGI)),[11]; [25],38 µM
same,GI50,[12]; [23],19.1 µM
same,CC50,[12]; [24],100 µM
same,IC (total growth inhibition (TGI)),[12]; read-out: Log10 TGI,43.7 µM
same,GI50,[13]; [23],18.2 µM
same,CC50,[13]; [24],70.8 µM
same,IC (total growth inhibition (TGI)),[13]; [25],35.5 µM
same,GI50,[14]; [23],16.6 µM
same,CC50,[14]; [24],87.1 µM
same,IC (total growth inhibition (TGI)),[14]; [25],38 µM
same,GI50,[15]; [23],15.5 µM
same,CC50,[15]; [24],64.6 µM
same,IC (total growth inhibition (TGI)),[15]; [25],31.6 µM
same,GI50,[16]; [23],18.2 µM
same,CC50,[16]; [24],64.6 µM
same,IC (total growth inhibition (TGI)),[16]; [25],34.7 µM
same,GI50,[17]; [23],39.8 µM
same,CC50,[17]; [24],> 100 µM
same,IC (total growth inhibition (TGI)),[17]; read-out: Log10 TGI,> 100 µM
same,GI50,[18]; [23],19.5 µM
same,CC50,[18]; [24],74.1 µM
same,IC (total growth inhibition (TGI)),[18]; [25],38 µM
same,GI50,[19]; [23],19.1 µM
same,CC50,[19]; [24],85.1 µM
same,IC (total growth inhibition (TGI)),[19]; [25],40.7 µM
same,GI50,[20]; [23],20 µM
same,CC50,[20]; [24],> 100 µM
same,IC (total growth inhibition (TGI)),[20]; [25],46.8 µM
same,GI50,[21]; [23],25.7 µM
same,CC50,[21]; [24],77.6 µM
same,IC (total growth inhibition (TGI)),[21]; [25],44.7 µM
same,GI50,[22]; [23],19.5 µM
same,CC50,[22]; [24],91.2 µM
same,IC (total growth inhibition (TGI)),[22]; [25],42.7 µM

# — patent publication US5348946A, “Heteroanthracycline antitumor analogs” (Biochem Immunosystems, Inc., priority 1991, dated 1994)
